From ChEMBL document CHEMBL1201862, “PubChem BioAssay data set” (2004)
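Values below derive from 48-hour exposures of cells grown in 96-well plates, with endpoints linearly interpolated between the two concentrations bracketing the appropriate inhibition level. At the GI50, growth is halved.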 The source made the active and inactive calls. No stated cut-off is given here; in the data, active = GI50 up to about 1.1 µM and inactive = higher.

Assays:
Assay in all cases: inhibition of tumour cell growth, NCI panel, 48 h
[1] = system: A549
[2] = system: HT-29
[3] = system: NCI-H23
[4] = system: NCI-H522
[5] = system: COLO 205
[6] = system: ACHN
[7] = system: M14
[8] = system: BT-549
[9] = system: Malme-3M
[10] = system: DLD-1
[11] = system: UO-31
[12] = system: MCF7
[13] = system: SK-OV-3
[14] = system: HOP-62
[15] = system: RXF 393
[16] = system: A498
[17] = system: SF-268
[18] = system: MDA-MB-435
[19] = system: NCI-H226
[20] = system: Hs-578T

SMILES | GI50 [1] | GI50 [2] | GI50 [3] | GI50 [4] | GI50 [5] | GI50 [6] | GI50 [7] | GI50 [8] | GI50 [9] | GI50 [10] | GI50 [11] | GI50 [12] | GI50 [13] | GI50 [14] | GI50 [15] | GI50 [16] | GI50 [17] | GI50 [18] | GI50 [19] | GI50 [20]
CCOC(=O)NC(=O)c1cn(CCCOC(=O)CCCCCCCCC(=O)OCCCn2cc(C(=O)NC(=O)OCC)c(=O)n(C)c2=O)c(=O)n(C)c1=O | > 100 µM (inactive) | > 100 µM (inactive) | > 100 µM (inactive) | > 100 µM (inactive) | > 100 µM (inactive) | > 100 µM (inactive) | > 100 µM (inactive) | > 100 µM (inactive) | > 100 µM (inactive) | > 100 µM (inactive) | > 100 µM (inactive) | > 100 µM (inactive) | > 100 µM (inactive) | > 70.6 µM (inactive) | > 82.8 µM (inactive) | > 100 µM (inactive) | > 100 µM (inactive) | > 100 µM (inactive) | > 100 µM (inactive) | > 100 µM (inactive)
CC1(O)CC2(O)C=CC3=C(C(=O)c4cccc(O)c4C3=O)C2(O)C(=O)C1O (configuration not stated) | 9.95 µM (inactive) | 2.43 µM (inactive) | 2.92 µM (inactive) | 0.124 µM (active) | 0.152 µM (active) | 1.63 µM (inactive) | 1.37 µM (inactive) | 1.17 µM (inactive) | 0.406 µM (active) | 0.791 µM (active) | 1.99 µM (inactive) | 0.624 µM (active) | 15.2 µM (inactive) | 21.6 µM (inactive) | 0.964 µM (active) | 7.26 µM (inactive) | 5.46 µM (inactive) | 1.8 µM (inactive) | 10.6 µM (inactive) | 3.1 µM (inactive)
COc1ccc(/C=N/NC(=O)NCCNCCO)cc1 | > 100 µM (inactive) | > 100 µM (inactive) | > 100 µM (inactive) | > 100 µM (inactive) | > 100 µM (inactive) | > 100 µM (inactive) | > 100 µM (inactive) |  | > 100 µM (inactive) | > 100 µM (inactive) | > 100 µM (inactive) |  | > 100 µM (inactive) | > 100 µM (inactive) | > 100 µM (inactive) | > 100 µM (inactive) | > 100 µM (inactive) |  | > 100 µM (inactive) | 
NCCNc1cccc2ccccc12 | > 100 µM (inactive) | > 100 µM (inactive) | > 100 µM (inactive) | > 100 µM (inactive) | > 100 µM (inactive) | > 100 µM (inactive) | > 100 µM (inactive) |  | > 100 µM (inactive) | > 100 µM (inactive) | > 100 µM (inactive) |  | > 100 µM (inactive) | > 100 µM (inactive) | > 100 µM (inactive) | > 100 µM (inactive) | > 100 µM (inactive) |  | > 100 µM (inactive) | 
CC[C@@]1(OC(=O)CCC(=O)O)C(=O)OCc2c1cc1n(c2=O)Cc2cc3ccccc3nc2-1 | 0.0773 µM (active) | 0.366 µM (active) | 0.0442 µM (active) | 0.103 µM (active) | 0.692 µM (active) | 0.0208 µM (active) | 0.0556 µM (active) | 0.484 µM (active) | 0.467 µM (active) | 1.58 µM (inactive) | 0.0583 µM (active) | 0.0287 µM (active) | 0.23 µM (active) | 0.0139 µM (active) | 0.257 µM (active) | 0.216 µM (active) | 0.0395 µM (active) | 0.435 µM (active) | 0.193 µM (active) | 14.6 µM (inactive)
